Measured values published in patent US20050197350A1, “Novel quinoline, tetrahydroquinazoline, and pyrimidine derivatives and methods of treatment related to the use thereof” (TAISHO PHARMACEUTICAL CO., LTD., priority 2003, published 2005).

System: MCH receptors
Experiment: MCH receptor activity class (method not given)
[1] = class by percent of control at 10^-7 M or IC50
[2] = MCH receptor activity class 1-3 (percent of control at 10^-7 M or IC50)
[3] = activity class per percent of control at 10^-7 M or IC50
[4] = class by percent of control at 10^−7 M or IC50
[5] = activity class 1-3: percent of control at 10^-7 M or IC50

## COc1ccc(NC(=O)N[C@H]2CC[C@@H](Nc3nccc(N(C)C)n3)CC2)cc1Cl [compound 2241]
[1]
  class: 3 (Class 3 The value of percent of control at 10^−7 M was more than 60% or the value of IC50 was more than 200 nM.)

## CC(C)c1cc(Br)c(NC(=O)N[C@H]2CC[C@@H](Nc3cc(N(C)C)c4ccccc4n3)CC2)c(Br)c1 [compound 2162]
[1]
  class: 3 (Class 3 The value of percent of control at 10^−7 M was more than 60% or the value of IC50 was more than 200 nM.)

## CN(C)c1ccnc(N[C@H]2CC[C@@H](NC(=S)Nc3ccc(N(C)C)c4ccccc34)CC2)n1 [compound 2267]
[1]
  class: 2 (Class 2: The value of percent of control at 10^−7 M was from 40% to 60% or the value of IC′50 was from 50 nM to 200 nM.)

## CN(C)c1ccnc(N[C@H]2CC[C@@H](NC(=S)Nc3c(F)cc(Br)cc3Br)CC2)n1 [compound 2345]
[2]
  class: 2 (Class 2: The value of percent of control at 10^−7 M was from 40% to 60% or the value of IC′50 was from 50 nM to 200 nM.)

## CN(C)c1nc(N[C@H]2CC[C@@H](CNC(=O)c3c(Cl)cccc3Cl)CC2)nc2c1CCCC2 [compound 656, 2,6-dichloro-N-[(cis-4-{[4-(dimethylamino)-5,6,7,8-tetrahydroquinazolin-2-yl]amino}cyclohexyl)methyl]benzamide]
[1]
  class: 2 (Class 2: The value of percent of control at 10^−7 M was from 40% to 60% or the value of IC′50 was from 50 nM to 200 nM.)

## CC(=O)c1ccc(NC(=O)N[C@H]2CC[C@@H](Nc3nc4c(c(N(C)C)n3)CCCC4)CC2)cc1 [compound 1808]
[1]
  class: 3 (Class 3 The value of percent of control at 10^−7 M was more than 60% or the value of IC50 was more than 200 nM.)

## CN(C)c1ccnc(N[C@H]2CC[C@@H](NC(=O)c3ccccc3Oc3ccccc3)CC2)n1 [compound 893, N-(cis-4-{[4-(dimethylamino)pyrimidin-2-yl]amino}cyclohexyl)-2-phenoxybenzamide]
[1]
  class: 2 (Class 2: The value of percent of control at 10^−7 M was from 40% to 60% or the value of IC′50 was from 50 nM to 200 nM.)

## CN(C)c1ccnc(N[C@H]2CC[C@@H](NC(=O)Nc3ccc(F)cc3F)CC2)n1 [compound 2181]
[1]
  class: 3 (Class 3 The value of percent of control at 10^−7 M was more than 60% or the value of IC50 was more than 200 nM.)

## Cc1cccc(NC(=O)N[C@H]2CC[C@@H](Nc3nc4c(c(N(C)C)n3)CCCC4)CC2)c1 [compound 1840]
[1]
  class: 3 (Class 3 The value of percent of control at 10^−7 M was more than 60% or the value of IC50 was more than 200 nM.)

## CN(C)c1nc(NC2CCC(NC(=O)OCc3ccc([N+](=O)[O-])cc3)CC2)nc2c1CCCC2 (stereo not shown) [compound 492]
Class 1-3 by percent of control at 10^-7 M or IC50
  class: 3 (Class 3 The value of percent of control at 10^−7 M was more than 60% or the value of IC50 was more than 200 nM.)

## CN(C)c1nc(N[C@H]2CC[C@@H](NC(=O)COc3c(Cl)cc(Cl)cc3Cl)CC2)nc2c1CCCC2 [compound 1023]
[3]
  class: 3 (Class 3 The value of percent of control at 10^−7 M was more than 60% or the value of IC50 was more than 200 nM.)

## COC(=O)c1cccc(NC(=O)N[C@H]2CC[C@@H](Nc3nc4c(c(N(C)C)n3)CCCC4)CC2)c1 [compound 1870]
[1]
  class: 3 (Class 3 The value of percent of control at 10^−7 M was more than 60% or the value of IC50 was more than 200 nM.)

## Cc1cc(N(C)C)nc(N[C@H]2CC[C@@H](C(=O)NCc3cccc(Cl)c3)CC2)n1 [compound 2812, cis-N-(3-chlorobenzyl)-4-{[4-(dimethylamino)-6-methylpyrimidin-2-yl]amino}cyclohexanecarboxamide]
[4]
  class: 1 (Class 1: The value of percent of control at 10^−7 M was less than 40% or the value of IC50 was less than 50 nM.)

## CCOc1cc(CN[C@H]2CC[C@@H](Nc3nc4c(c(N(C)C)n3)CCCC4)CC2)ccc1OC [compound 1338]
[1]
  class: 3 (Class 3 The value of percent of control at 10^−7 M was more than 60% or the value of IC50 was more than 200 nM.)

## COc1ccccc1NC(=S)N[C@H]1CC[C@@H](Nc2cc(N(C)C)c3ccccc3n2)CC1 [compound 2173]
[1]
  class: 3 (Class 3 The value of percent of control at 10^−7 M was more than 60% or the value of IC50 was more than 200 nM.)

## CN(C)c1ccnc(N[C@H]2CC[C@@H](NC(=O)c3ccc4ccccc4c3)CC2)n1 [compound 328]
[1]
  class: 3 (Class 3 The value of percent of control at 10^−7 M was more than 60% or the value of IC50 was more than 200 nM.)

## Cc1ccc(C(=O)NC[C@H]2CC[C@@H](Nc3nc4c(c(N(C)C)n3)CCCC4)CC2)cc1[N+](=O)[O-] [compound 605]
[1]
  class: 3 (Class 3 The value of percent of control at 10^−7 M was more than 60% or the value of IC50 was more than 200 nM.)

## COc1ccc(CNC[C@H]2CC[C@@H](Nc3cc(N(C)C)c4ccccc4n3)CC2)c(OC)c1C [compound 1167]
[1]
  class: 3 (Class 3 The value of percent of control at 10^−7 M was more than 60% or the value of IC50 was more than 200 nM.)

## CCSC(C(=O)N[C@H]1CC[C@@H](Nc2nc3c(c(N(C)C)n2)CCCC3)CC1)(c1ccccc1)c1ccccc1 [compound 1010]
[3]
  class: 2 (Class 2: The value of percent of control at 10^−7 M was from 40% to 60% or the value of IC′50 was from 50 nM to 200 nM.)

## CN(C)c1nc(N[C@H]2CC[C@@H](NC(=O)Nc3ccc(Br)cc3C(F)(F)F)CC2)nc2c1CCCC2 [compound 1722]
[1]
  class: 3 (Class 3 The value of percent of control at 10^−7 M was more than 60% or the value of IC50 was more than 200 nM.)

## CN(C)c1ccnc(N[C@H]2CC[C@@H](NC(=O)Cc3c(-c4ccccc4)[nH]c4ccccc34)CC2)n1 [compound 869, N-(cis-4-{[4-(dimethylamino)pyrimidin-2-yl]amino}cyclohexyl)-2-(2-phenyl-1H-indol-3-yl)acetamide]
[1]
  class: 1 (Class 1: The value of percent of control at 10^−7 M was less than 40% or the value of IC50 was less than 50 nM.)

## CN(C)c1nc(N[C@H]2CC[C@@H](NC(=O)Nc3cc(C(F)(F)F)ccc3Cl)CC2)nc2c1CCCC2 [compound 1855]
[1]
  class: 3 (Class 3 The value of percent of control at 10^−7 M was more than 60% or the value of IC50 was more than 200 nM.)

## COC(=O)c1ccccc1Sc1nc2sccn2c1CN[C@H]1CC[C@@H](Nc2nc3c(c(N(C)C)n2)CCCC3)CC1 [compound 1358]
[1]
  class: 3 (Class 3 The value of percent of control at 10^−7 M was more than 60% or the value of IC50 was more than 200 nM.)

## COc1cc(COC(=O)NC2CCC(Nc3nccc(N(C)C)n3)CC2)c([N+](=O)[O-])cc1OC (stereo not shown) [compound 1621, [4-(4-Dimethylamino-pyrimidin-2-ylamino)-cyclohexyl]-carbamid acid 4,5-dimethoxy-2-nitro-benzyl ester]
[5]
  class: 3 (Class 3 The value of percent of control at 10^−7 M was more than 60% or the value of IC50 was more than 200 nM.)

## CN(C)c1nc(N[C@H]2CC[C@@H](NC(=O)Nc3ccc4c(c3)OCCO4)CC2)nc2c1CCCC2 [compound 1731]
[1]
  class: 3 (Class 3 The value of percent of control at 10^−7 M was more than 60% or the value of IC50 was more than 200 nM.)

## CCOc1cc(CNC[C@H]2CC[C@@H](Nc3nc4c(c(N(C)C)n3)CCCC4)CC2)ccc1O [compound 1401]
[1]
  class: 2 (Class 2: The value of percent of control at 10^−7 M was from 40% to 60% or the value of IC′50 was from 50 nM to 200 nM.)

## CN(C)c1cc(N[C@H]2CC[C@@H](CNC(=O)Nc3ccccc3Cl)CC2)nc2ccccc12 [compound 2359]
[2]
  class: 3 (Class 3 The value of percent of control at 10^−7 M was more than 60% or the value of IC50 was more than 200 nM.)

## COc1ccc(F)cc1CNC[C@H]1CC[C@@H](Nc2cc(N(C)C)c3ccccc3n2)CC1 [compound 1173]
[1]
  class: 3 (Class 3 The value of percent of control at 10^−7 M was more than 60% or the value of IC50 was more than 200 nM.)

## COc1ccc(NC(=O)N[C@H]2CC[C@@H](Nc3nc4c(c(N(C)C)n3)CCCC4)CC2)c([N+](=O)[O-])c1 [compound 1893]
[1]
  class: 3 (Class 3 The value of percent of control at 10^−7 M was more than 60% or the value of IC50 was more than 200 nM.)

## CCN(CC)c1ccc(CNC[C@H]2CC[C@@H](Nc3nccc(N(C)C)n3)CC2)cc1 [compound 1271]
[1]
  class: 2 (Class 2: The value of percent of control at 10^−7 M was from 40% to 60% or the value of IC′50 was from 50 nM to 200 nM.)

## Cc1cnc(NC[C@H]2CC[C@@H](NC(=O)c3ccccc3)CC2)nc1N(C)C [compound 2712, N-[cis-4-({[4-(dimethylamino)-5-methylpyrimidin-2-yl]amino}methyl)cyclohexyl]benzamide]
[4]
  class: 3 (Class 3 The value of percent of control at 10^−7 M was more than 60% or the value of IC50 was more than 200 nM.)

## CN(C)c1nc(N[C@H]2CC[C@@H](NCC3CN(C(c4ccccc4)c4ccccc4)C3)CC2)nc2c1CCCC2 [compound 1497]
[1]
  class: 1 (Class 1: The value of percent of control at 10^−7 M was less than 40% or the value of IC50 was less than 50 nM.)

## CN(C)c1nc(N[C@H]2CC[C@@H](CNC(=O)Cc3c(Cl)ccc(Cl)c3Cl)CC2)nc2c1CCCC2 [compound 1062]
[3]
  class: 2 (Class 2: The value of percent of control at 10^−7 M was from 40% to 60% or the value of IC′50 was from 50 nM to 200 nM.)

## CN(C)c1cc(N[C@H]2CC[C@@H](CNC(=O)Nc3cc(Cl)cc(Cl)c3)CC2)nc2ccccc12 [compound 2393]
[2]
  class: 3 (Class 3 The value of percent of control at 10^−7 M was more than 60% or the value of IC50 was more than 200 nM.)

## Cc1cc(CN[C@H]2CC[C@@H](Nc3nccc(N(C)C)n3)CC2)cc(C)c1O [compound 1223]
[1]
  class: 3 (Class 3 The value of percent of control at 10^−7 M was more than 60% or the value of IC50 was more than 200 nM.)

## CCc1cccc(C(=O)N[C@H]2CC[C@@H](Nc3ncc(C)c(N(C)C)n3)CC2)c1 [compound 2925, N-(cis-4-{[4-(dimethylamino)-5-methylpyrimidin-2-yl]amino}cyclohexyl)-3-ethylbenzamide]
[4]
  class: 1 (Class 1: The value of percent of control at 10^−7 M was less than 40% or the value of IC50 was less than 50 nM.)

## C=CCOC(=O)N[C@H]1CC[C@@H](Nc2nccc(N(C)C)n2)CC1 [compound 1630]
[5]
  class: 3 (Class 3 The value of percent of control at 10^−7 M was more than 60% or the value of IC50 was more than 200 nM.)
